Results published in patent US9266876B2 (Actelion Pharmaceuticals Ltd., priority 2012, dated 2016).

How the values were obtained:
[1] = biological target: CXCR3 (Homo sapiens (Human), UniProt P49682); test: Receptor internalization assay; assay type: cell-based; details: human whole blood; final CXCL10 concentration 9 nM; 30 min 37° C.; CXCR3 cell surface expression on CD3 positive cells, flow cytometer; read-out: Internalization IC50
Description: B): Receptor Internalization Assay:
Stock solutions of test compounds are made up at a concentration of 10 mM in DMSO, and serially diluted in PBS containing 0.5% BSA to concentrations required for inhibition dose response curves. Diluted compounds are then mixed with an equal volume of CXCL10 (Peprotech) diluted in PBS. Anticoagulated venous human whole blood is added to the mixture, which is then incubated in a CO2 incubator at 37° C. to allow for ligand mediated receptor internalization (final CXCL10 concentration is 9 nM). After 30′, the blood is mixed with fluorescently labeled CXCR3 and CD3 specific antibodies (Becton Dickinson) and incubated on ice for 10 minutes. Samples are then mixed with BD FACS Lysing Solution (Becton Dickinson) in order to eliminate red blood cells. After washing the cells with PBS containing 0.5% BSA, the samples are then analyzed in a flow cytometer (FACS Canto II, Becton Dickinson). For data analysis using FACSDiva software (Becton Dickinson), the mean fluorescence corresponding to CXCR3 cell surface expression was determined on CD3 positive cells. The program GraphPad Prism is used to fit the data to a single site dose response curve and to calculate IC50 values.

[2] = biological target: human CXCR3A (Homo sapiens (Human), UniProt P49682); test: FLIPR assay; assay type: cell-based; details: CHO-K1 cells expressing the human CXCR3A coupled to Galpha(16); CXCL10 agonist 20 nM; Fluo-4-AM fluorescence; mean values if determined several times
Summary of the method: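 CHO-K1 cells expressing CXCR3A coupled to Gα16 were loaded with Fluo-4-AM for 1 h in Hepes-buffered HBSS, pH 7.4, with 5 mM probenecid. Compound dilutions were added on the FLIPR, followed by CXCL10 (added as a 20 nM solution). Baseline-subtracted peak fluorescence was fitted to a single-site curve for IC50.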

human CXCR3A, sequence (P49682 whole entry): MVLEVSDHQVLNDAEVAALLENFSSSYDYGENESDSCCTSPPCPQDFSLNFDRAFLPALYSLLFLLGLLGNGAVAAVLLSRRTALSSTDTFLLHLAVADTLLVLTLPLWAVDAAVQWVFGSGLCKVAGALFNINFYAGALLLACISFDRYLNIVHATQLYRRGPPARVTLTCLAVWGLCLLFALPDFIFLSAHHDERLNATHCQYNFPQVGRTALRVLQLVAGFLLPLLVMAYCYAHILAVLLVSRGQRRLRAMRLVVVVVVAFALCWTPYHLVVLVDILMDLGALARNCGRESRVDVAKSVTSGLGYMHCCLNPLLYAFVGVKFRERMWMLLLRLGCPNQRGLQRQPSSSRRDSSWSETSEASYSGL
CXCR3, sequence (P49682 whole entry): as above

Row | IC50 [1] [nM] | IC50 [2] [nM] | Compound
1 | 1460 | 4 | Cc1cc(CC(=O)N2CCN(c3sc(C(F)(F)F)nc3-c3nc4ccccc4[nH]3)C[C@H]2C)cc(C)n1 [Example 219]
2 | 12 | 4 | CN(C)C[C@@H]1CN(c2sc(C(F)(F)F)nc2-c2nc3ccccc3[nH]2)CCN1C(=O)Cn1cnc2cccnc21 [Example 228, 1-{(R)-4-[4-(1H-Benzoimidazol-2-yl)-2-trifluoromethyl-thiazol-5-yl]-2-dimethylaminomethyl-piperazin-1-yl}-2-imidazo[4,5-b]pyridin-3-yl-ethanone]
3 | 121 | 1 | C[C@@H]1CN(c2sc(C(F)(F)F)nc2-c2nc3ccccc3[nH]2)CCN1C(=O)Cn1cnc2c1CN(C)CC2 [Example 210, 1-{(R)-4-[4-(1H-Benzoimidazol-2-yl)-2-trifluoromethyl-thiazol-5-yl]-2-methyl-piperazin-1-yl}-2-(5-methyl-4,5,6,7-tetrahydro-imidazo[4,5-c]pyridin-3-yl)-ethanone]
4 | 44 | 1 | C[C@@H]1CN(c2sc(C(F)(F)F)nc2-c2nc3ccccc3[nH]2)CCN1C(=O)Cn1cc2cccnc2n1 [Example 202, 1-{(R)-4-[4-(1H-Benzoimidazol-2-yl)-2-trifluoromethyl-thiazol-5-yl]-2-methyl-piperazin-1-yl}-2-pyrazolo[3,4-b]pyridin-2-yl-ethanone]
5 | 332 | 1 | Cc1nc(C)n(CC(=O)N2CCN(c3sc(C(F)(F)F)nc3-c3nc4c(F)c(F)ccc4[nH]3)C[C@H]2C)n1 [Example 231, 1-{(R)-4-[4-(4,5-Difluoro-1H-benzoimidazol-2-yl)-2-trifluoromethyl-thiazol-5-yl]-2-methyl-piperazin-1-yl}-2-(3,5-dimethyl-[1,2,4]triazol-1-yl)-ethanone]
6 | 69 | 8 | Cc1nc(C)n(CC(=O)N2CCN(c3sc(C(F)(F)F)nc3-c3nc4ccccc4[nH]3)C[C@H]2CN(C)C)n1 [Example 227, 1-{(R)-4-[4-(1H-Benzoimidazol-2-yl)-2-trifluoromethyl-thiazol-5-yl]-2-dimethylaminomethyl-piperazin-1-yl}-2-(3,5-dimethyl-[1,2,4]triazol-1-yl)-ethanone]
7 | 271 | 2 | C[C@@H]1CN(c2sc(C(F)(F)F)nc2-c2nc3ccccc3[nH]2)CCN1C(=O)Cn1cc2c(n1)CCN(C)C2 [Example 215, 1-{(R)-4-[4-(1H-Benzoimidazol-2-yl)-2-trifluoromethyl-thiazol-5-yl]-2-methyl-piperazin-1-yl}-2-(5-methyl-4,5,6,7-tetrahydro-pyrazolo[4,3-c]pyridin-2-yl)-ethanone]
8 | 363 | 1 | O=C(Cn1cnc2cccnc21)N1CCN(c2sc(C(F)(F)F)nc2-c2nc3ccccc3[nH]2)CC1 [Example 226, 1-{4-[4-(1H-Benzoimidazol-2-yl)-2-trifluoromethyl-thiazol-5-yl]-piperazin-1-yl}-2-imidazo[4,5-b]pyridin-3-yl-ethanone]
9 | 1090 | 6 | C[C@@H]1CN(c2sc(C(F)(F)F)nc2-c2nc3ccccc3[nH]2)CCN1C(=O)Cn1cc(C2CCNCC2)cn1 [Example 221, 1-{(R)-4-[4-(1H-Benzoimidazol-2-yl)-2-trifluoromethyl-thiazol-5-yl]-2-methyl-piperazin-1-yl}-2-(4-piperidin-4-yl-pyrazol-1-yl)-ethanone]

More lines, now with the values behind:

Row | Compound | IC50 [1] [nM] | IC50 [2] [nM]
10 | C[C@@H]1CN(c2scnc2-c2nc3ccccc3[nH]2)CCN1C(=O)Cn1c(=O)oc2cccc(F)c21 [Example 153, 3-(2-{(R)-4-[4-(1H-Benzoimidazol-2-yl)-thiazol-5-yl]-2-methyl-piperazin-1-yl}-2-oxo-ethyl)-4-fluoro-3H-benzooxazol-2-one] | 1030 | 7
11 | C[C@@H]1CN(c2sc(C(F)(F)F)nc2-c2nc3cc(OCCO)ccc3[nH]2)CCN1C(=O)Cn1cnc2cccnc21 [Example 164, 1-((R)-4-{4-[5-(2-Hydroxy-ethoxy)-1H-benzoimidazol-2-yl]-2-trifluoromethyl-thiazol-5-yl}-2-methyl-piperazin-1-yl)-2-imidazo[4,5-b]pyridin-3-yl-ethanone] | 93 | 1
12 | O=C(CN1C(=O)CCc2ccccc21)N1CCN(c2scnc2-c2nc3ccccc3[nH]2)CC1 [Example 77, 1-(2-{4-[4-(1H-Benzoimidazol-2-yl)-thiazol-5-yl]-piperazin-1-yl}-2-oxo-ethyl)-3,4-dihydro-1H-quinolin-2-one] | 1440 | 6
13 | CC[C@@H]1CN(c2scnc2-c2nc3ccccc3[nH]2)CCN1C(=O)Cn1ccc2cccnc21 [Example 18, 1-{(R)-4-[4-(1H-Benzoimidazol-2-yl)-thiazol-5-yl]-2-ethyl-piperazin-1-yl}-2-pyrrolo[2,3-b]pyridin-1-yl-ethanone] | 2420 | 1
14 | C[C@@H]1CN(c2sc(C(F)(F)F)nc2-c2nc3ccccc3[nH]2)CCN1C(=O)CN1C(=O)Cc2ccccc21 [Example 103, 1-(2-{(R)-4-[4-(1H-Benzoimidazol-2-yl)-2-trifluoromethyl-thiazol-5-yl]-2-methyl-piperazin-1-yl}-2-oxo-ethyl)-1,3-dihydro-indol-2-one] | 81 | 1
15 | C[C@@H]1CN(c2sc(C(F)(F)F)nc2-c2nc3ccc(CO)cc3[nH]2)CCN1C(=O)Cn1cnc2cccnc21 [Example 160, 1-{(R)-4-[4-(6-Hydroxymethyl-1H-benzoimidazol-2-yl)-2-trifluoromethyl-thiazol-5-yl]-2-methyl-piperazin-1-yl}-2-imidazo[4,5-b]pyridin-3-yl-ethanone] | 92 | 2
16 | Cc1cccc2ccn(CC(=O)N3CCN(c4scnc4-c4nc5ccccc5[nH]4)CC3)c12 [Example 57, 1-{4-[4-(1H-Benzoimidazol-2-yl)-thiazol-5-yl]-piperazin-1-yl}-2-(7-methyl-indol-1-yl)-ethanone] | 4130 | 2
17 | CC(C)c1ccc2nc(-c3ncsc3N3CCN(C(=O)Cn4cnc5cccnc54)[C@H](C)C3)[nH]c2c1 [Example 88, 2-Imidazo[4,5-b]pyridin-3-yl-1-{(R)-4-[4-(6-isopropyl-1H-benzoimidazol-2-yl)-thiazol-5-yl]-2-methyl-piperazin-1-yl}-ethanone] | 126 | 1
18 | O=C(Cn1ccc2ccc(Cl)nc21)N1CCN(c2scnc2-c2nc3ccccc3[nH]2)CC1 [Example 65, 1-{4-[4-(1H-Benzoimidazol-2-yl)-thiazol-5-yl]-piperazin-1-yl}-2-(6-chloro-pyrrolo[2,3-b]pyridin-1-yl)-ethanone] | 816 | 3
19 | Cn1c(=O)n(CC(=O)N2CCN(c3scnc3-c3nc4cc(C#N)ccc4[nH]3)CC2)c2ccccc21 [Example 75, 2-(5-{4-[2-(3-Methyl-2-oxo-2,3-dihydro-benzoimidazol-1-yl)-acetyl]-piperazin-1-yl}-thiazol-4-yl)-1H-benzoimidazole-5-carbonitrile] | 721 | 15
20 | Cc1cccc(-c2nc(-c3nc4ccccc4[nH]3)c(N3CCN(C(=O)Cn4cnc5cccnc54)[C@H](C)C3)s2)c1 [Example 149, 1-{(R)-4-[4-(1H-Benzoimidazol-2-yl)-2-m-tolyl-thiazol-5-yl]-2-methyl-piperazin-1-yl}-2-imidazo[4,5-b]pyridin-3-yl-ethanone] | 5070 | 16
21 | C[C@@H]1CN(c2scnc2-c2nc3ccc(-c4ccccc4)cc3[nH]2)CCN1C(=O)Cn1cnc2cccnc21 [Example 100, 2-Imidazo[4,5-b]pyridin-3-yl-1-{(R)-2-methyl-4-[4-(6-phenyl-1H-benzoimidazol-2-yl)-thiazol-5-yl]-piperazin-1-yl}-ethanone] | 747 | 1
22 | Cc1nc(C)n(CC(=O)N2CCN(c3sc(C(F)(F)F)nc3-c3nc4ccc(N5CCOCC5)cc4[nH]3)C[C@H]2C)n1 [Example 233, 2-(3,5-Dimethyl-[1,2,4]triazol-1-yl)-1-{(R)-2-methyl-4-[4-(6-morpholin-4-yl-1H-benzoimidazol-2-yl)-2-trifluoromethyl-thiazol-5-yl]-piperazin-1-yl}-ethanone] | 376 | 6
23 | Cc1cc2[nH]c(-c3ncsc3N3CCN(C(=O)Cn4ccc5cccnc54)[C@H](C)C3)nc2cc1Cl [Example 27, 1-{(R)-4-[4-(5-Chloro-6-methyl-1H-benzoimidazol-2-yl)-thiazol-5-yl]-2-methyl-piperazin-1-yl}-2-pyrrolo[2,3-b]pyridin-1-yl-ethanone] | 314 | 3
24 | O=C(Cn1c(=O)[nH]c2cccnc21)N1CCN(c2scnc2-c2nc3ccccc3[nH]2)CC1 [Example 71, 3-(2-{4-[4-(1H-Benzoimidazol-2-yl)-thiazol-5-yl]-piperazin-1-yl}-2-oxo-ethyl)-1,3-dihydro-imidazo[4,5-b]pyridin-2-one] | 639 | 6
